Measured values as given in ChEMBL document CHEMBL5365441, “Novel Foscan®-derived ring-fused chlorins for photodynamic therapy of cancer” (Bioorg Med Chem, 2023).

Experiments:
MDA-MB-231 [1] = assay: Phototherapeutic index, ratio of IC50 for cytotoxicity against human MDA-MB-231 cells under dark condition to IC50 for photocytotoxicity against human MDA-MB-231 cells in presence of 1 J/cm2 light irradiation; assay type: functional
[2] = Drug internalization in human MDA-MB-231 cells at 2.5 uM by flow cytometry analysis; assay type: ADME, cell-based; details: mda-mb-231, 2.5 µM, TDE = time-dependent effect, time 3-24 hrs
MDA-MB-231 [3] = assay: Cytotoxicity against human MDA-MB-231 cells assessed as reduction in cell viability incubated for 24 hrs under dark condition by resazurin reduction assay; assay type: functional, cell-based; details: MDA-MB-231, 24 h
[4] = Emission property of compound in DMSO assessed as fluorescence quantum yield; assay type: physicochemical
[5] = Photostability of compound in DMSO assessed as photodecomposition quantum yield; assay type: physicochemical
[6] = Drug internalization in mouse NIH/3T3 cells at 2.5 uM by flow cytometry analysis; assay type: ADME, cell-based; details: nih3t3, 2.5 µM, TDE = time-dependent effect, time 3-24 hrs
[7] = Induction of singlet oxygen production in EtOH assessed as singlet oxygen quantum yield by SOSG reagent based assay; assay type: functional
[8] = Photocytotoxicity against mouse NIH/3T3 cells assessed as reduction in cell viability preincubated for 24 hrs followed by washout and 1 J/cm2 light irradiation for 24 hrs by resazurin reduction assay; assay type: toxicity, cell-based, NIH3T3
MDA-MB-231 [9] = assay: Photocytotoxicity against human MDA-MB-231 cells assessed as reduction in cell viability preincubated for 24 hrs followed by washout and 1 J/cm2 light irradiation for 24 hrs by resazurin reduction assay; assay type: functional, cell-based; details: MDA-MB-231, light or radiation study
[10] = Cytotoxicity against mouse NIH/3T3 cells assessed as reduction in cell viability incubated for 24 hrs under dark condition by resazurin reduction assay; assay type: toxicity, cell-based, NIH3T3
[11] = Drug distribution in endoplasmic reticulum of human U2OS cells expressing CALR-GFP assessed as increase in fluorescence intensity at 5 uM incubated for 24 hrs by Hoechst staining based confocal microscopic analysis; assay type: ADME, subcellular
[12] = Drug distribution in golgi body of human U2OS cells expressing GALT1-GFP assessed as increase in fluorescence intensity at 5 uM incubated for 24 hrs by Hoechst staining based confocal microscopic analysis; assay type: ADME, subcellular

SMILES | Ratio IC50 (MDA-MB-231 [1]) | Drug uptake [2] | IC50 (MDA-MB-231 [3]) | Activity [4] | Activity [5] | Drug uptake [6] | Activity [7] | IC50 [8] | IC50 (MDA-MB-231 [9]) | IC50 at 24 h [10] | Drug uptake [11] | Drug uptake [12]
[N-]=[N+]=NCc1cc2n(n1)CC1c3nc(c(-c4cccc(O)c4)c4ccc([nH]4)c(-c4cccc(O)c4)c4nc(c(-c5cccc(O)c5)c5ccc([nH]5)c3-c3cccc(O)c3)C=C4)C1C2 (centres undefined) | 149.7 | Tde | 15.8 µM | 0.12 | 60.8 10^-6No_unit | Tde | 0.47 | 0.0931 µM | 0.106 µM | 10.6 µM | – | –
OCc1nn2c(c1CO)CC1c3nc(c(-c4cccc(O)c4)c4ccc([nH]4)c(-c4cccc(O)c4)c4nc(c(-c5cccc(O)c5)c5ccc([nH]5)c3-c3cccc(O)c3)C=C4)C1C2 (centres undefined) | 37 | Tde | 11.4 µM | 0.1 | 54.8 10^-6No_unit | Tde | 0.49 | 0.343 µM | 0.309 µM | > 10 µM | – | –
OCc1cc2n(n1)CC1c3nc(c(-c4cccc(O)c4)c4ccc([nH]4)c(-c4cccc(O)c4)c4nc(c(-c5cccc(O)c5)c5ccc([nH]5)c3-c3cccc(O)c3)C=C4)C1C2 (centres undefined) | 93.37 | Tde | 7.74 µM | 0.1 | 52.7 10^-6No_unit | Tde | 0.5 | 0.107 µM | 0.0863 µM | > 10 µM | Active | Active
COC(=O)c1cc2n(n1)CC1c3nc(c(-c4cccc(O)c4)c4ccc([nH]4)c(-c4cccc(O)c4)c4nc(c(-c5cccc(O)c5)c5ccc([nH]5)c3-c3cccc(O)c3)C=C4)C1C2 (centres undefined) | 56.27 | Tde | 7.74 µM | 0.11 | 60.8 10^-6No_unit | Tde | 0.53 | 0.109 µM | 0.138 µM | > 10 µM | – | –
Oc1cccc(-c2c3nc(c(-c4cccc(O)c4)c4ccc([nH]4)c(-c4cccc(O)c4)c4nc(c(-c5cccc(O)c5)c5ccc2[nH]5)C=C4)C=C3)c1 | – | Tde | 3.31 µM | – | – | Tde | – | 0.0125 µM | 0.0257 µM | 9.16 µM | – | –
COC(=O)c1cc2n(n1)CC1c3nc(c(-c4cccc(OC(C)=O)c4)c4ccc([nH]4)c(-c4cccc(OC(C)=O)c4)c4nc(c(-c5cccc(OC(C)=O)c5)c5ccc([nH]5)c3-c3cccc(OC(C)=O)c3)C=C4)C1C2 (centres undefined) | – | Tde | > 10 µM | 0.11 | 66.9 10^-6No_unit | Tde | 0.45 | 0.617 µM | 0.0013 µM | > 10 µM | Not Active | Not Active
